Measurements as given in patent US8642626B2, “Ethinyl-pyrazole derivative” (Taisho Pharmaceutical Co., Ltd., priority 2010, dated 2014).
pIC50: −log10 of the molar value.

The compounds below were run against T1, rat metabotropic glutamate receptor (mGlu2) (Rattus norvegicus, UniProt P31421) (assay: [35S]GTPγS binding test (1), crude membrane fraction of CHO cells stably expressing rat mGlu2). Details: inhibition of glutamic acid (20 μM)-stimulated specific [35S]GTPγS binding, rat mGlu2 CHO membranes.
T1 construct: expressed in transfected cells
T1 sequence (P31421 19-872): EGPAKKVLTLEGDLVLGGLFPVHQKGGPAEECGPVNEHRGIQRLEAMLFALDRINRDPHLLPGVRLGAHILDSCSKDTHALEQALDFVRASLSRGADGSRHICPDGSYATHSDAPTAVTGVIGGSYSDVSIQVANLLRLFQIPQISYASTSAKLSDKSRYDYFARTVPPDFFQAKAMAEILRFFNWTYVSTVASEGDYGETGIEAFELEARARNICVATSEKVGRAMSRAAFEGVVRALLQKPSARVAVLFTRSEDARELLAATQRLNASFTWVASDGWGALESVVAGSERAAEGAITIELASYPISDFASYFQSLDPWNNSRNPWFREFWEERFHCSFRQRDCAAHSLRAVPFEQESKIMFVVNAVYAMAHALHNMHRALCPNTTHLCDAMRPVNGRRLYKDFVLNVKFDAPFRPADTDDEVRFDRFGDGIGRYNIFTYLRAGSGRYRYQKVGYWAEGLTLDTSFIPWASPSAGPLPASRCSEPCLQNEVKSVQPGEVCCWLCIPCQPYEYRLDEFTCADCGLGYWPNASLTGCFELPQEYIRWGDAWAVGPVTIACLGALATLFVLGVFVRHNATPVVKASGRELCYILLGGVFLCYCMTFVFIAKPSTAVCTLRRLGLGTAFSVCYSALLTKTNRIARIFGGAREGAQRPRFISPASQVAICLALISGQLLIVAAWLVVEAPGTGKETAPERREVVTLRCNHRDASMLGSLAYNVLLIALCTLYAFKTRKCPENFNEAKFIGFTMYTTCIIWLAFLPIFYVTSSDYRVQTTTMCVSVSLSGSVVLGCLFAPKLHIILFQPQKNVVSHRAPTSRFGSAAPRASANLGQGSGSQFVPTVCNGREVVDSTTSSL
Assay type: biochemical
Experimental: [^35S]GTPγS Binding Test (1)
(Preparation of Crude Membrane Fraction of CHO Cells Stably Expressing the Rat Metabotropic Glutamate Receptor (mGlu2))
(§1) CHO cells stably expressing the rat mGlu2 were cultured in a 10% dialyzed fetal bovine serum-containing Dulbecco's Modified Eagle's Medium [1% proline, 50 units/mL penicillin, 50 μg/mL streptomycin, and 2 mM L-glutamine (to be added when used)] at 37° C. in 5% CO2. Confluent cells were washed with PBS(−) twice, and were then harvested with a cell scraper. Then, the cells were centrifuged at 4° C. at 1000 rpm for 5 minutes to collect. The obtained precipitate was suspended in a 20 mM HEPES buffer (pH 7.4), and then homogenized with a Teflon (registered trademark) homogenizer. The resultant was centrifuged at 4° C. at 48,000×g for 20 minutes to obtain a precipitate again. The obtained precipitate was washed twice by centrifugation, and was then homogenized with the above-mentioned buffer, so as to obtain a crude membrane fraction. The obtained crude membrane fraction was preserved at −80° C.
The frozen membrane fraction as prepared above was thawed when used, and it was then diluted with a binding test buffer (final concentration: 20 mM HEPES, 100 mM NaCl, 10 mM MgCl2, 8.4 μM GDP, 10 μg/mL saponin, and 0.1% BSA). The compound of the Example was added to a membrane fraction (10 μg protein/assay), and the obtained mixture was then incubated at 30° C. for 20 minutes. Thereafter, glutamic acid (final concentration: 20 μM; but it was 30 μM only in the compounds 1 and 40 of the Examples) and [^35S]GTPγS (final concentration: 0.15 nM) were added to the reaction mixture, and then incubated at 30° C. for 1 hour. After completion of the incubation, the reaction mixture was subjected to filtration over a Whatman GF/C filter that had previously been immersed in a 20 mM HEPES buffer (pH 7.4), and the filter was then washed three times with 300 μL of ice-cold 20 mM HEPES buffer (pH 7.4). A scintillation cocktail was added to the resulting filter, and membrane-bound radioactivity was then measured with a liquid scintillation counter.
The amount of [^35S]GTPγS bound in the case of carrying out the above described reaction in the absence of glutamic acid was defined as non-specific binding. The difference between such non-specific bound and the amount of [^35S]GTPγS bound in the presence of glutamic acid was defined as specific binding. Using non-linear analysis, a concentration-inhibition curve was produced. The concentration of the compound of each Example that caused 50% inhibition (IC50 value) of specific binding was determined from each concentration-inhibition curve.
With Cn1ncc(C#Cc2ccc(S(N)(=O)=O)cc2)c1-c1ccc(C(F)(F)F)cn1 [Example 50, 4-({1-methyl-5-[5-(trifluoromethyl)pyridin-2-yl]-1H-pyrazol-4-yl}ethynyl)benzenesulfonamide] the pIC50 was 7.12.
Cn1ncc(C#Cc2ccc(S(N)(=O)=O)cc2)c1N1Cc2ccc(Cl)cc2C1 [Example 58, 4-{[5-(5-chloro-1,3-dihydro-2H-isoindol-2-yl)-1-methyl-1H-pyrazol-4-yl]ethynyl}benzenesulfonamide] was tested, and the pIC50 was 7.86.
Work on Cn1ncc(C#Cc2ccc(S(N)(=O)=O)cc2)c1-c1cnn(-c2ccc(C(F)(F)F)cc2)c1 [Example 64, 4-({2-methyl-1′-[4-(trifluoromethyl)phenyl]-1′H,2H-3,4′-bipyrazol-4-yl}ethynyl)benzenesulfonamide] yielded a pIC50 of 8.01.
For Cn1ncc(C#Cc2ccc(S(N)(=O)=O)cc2)c1-c1nc(-c2ccc(C(F)(F)F)cc2)no1 [Example 73, 4-[(1-methyl-5-{3-[4-(trifluoromethyl)phenyl]-1,2,4-oxadiazol-5-yl}-1H-pyrazol-4-yl)ethynyl]benzenesulfonamide], the pIC50 was 8.68.
Cc1nn(C)c(COc2ccc(C(F)(F)F)cc2)c1C#Cc1cccc(S(N)(=O)=O)c1 [Example 81, 3-[(1,3-dimethyl-5-{[4-(trifluoromethyl)phenoxy]methyl}-1H-pyrazol-4-yl)ethynyl]benzenesulfonamide] gave a pIC50 of 7.84.
With Cn1ncc(C#Cc2ccc(S(N)(=O)=O)cc2F)c1CCc1ccc(C(F)(F)F)cc1 [Example 83, 3-fluoro-4-[(1-methyl-5-{2-[4-(trifluoromethyl)phenyl]ethyl}-1H-pyrazol-4-yl)ethynyl]benzenesulfonamide] the pIC50 was 7.66.
Work on Cn1ncc(C#Cc2cccc(S(N)(=O)=O)c2)c1COc1ccc(C(F)(F)F)cc1 [Example 84, 3-[(1-methyl-5-{[4-(trifluoromethyl)phenoxy]methyl}-1H-pyrazol-4-yl)ethynyl]benzenesulfonamide] yielded a pIC50 of 8.57.
Cn1ncc(C#Cc2cccc(S(N)(=O)=O)c2)c1-c1cc(-c2ccc(C(F)(F)F)cc2)no1 [Example 87, 3-[(1-methyl-5-{3-[4-(trifluoromethyl)phenyl]-1,2-oxazol-5-yl}-1H-pyrazol-4-yl)ethynyl]benzenesulfonamide] was tested, and the pIC50 was 8.46.
In the case of Cn1ncc(C#Cc2cccc(S(N)(=O)=O)c2)c1OCc1ccc(C(F)(F)F)cc1 [Example 89, 3-[(1-methyl-5-{[4-(trifluoromethyl)benzyl]oxy}-1H-pyrazol-4-yl)ethynyl]benzenesulfonamide], the pIC50 was 7.26.
Work on Cn1ncc(C#Cc2cccc(S(N)(=O)=O)c2)c1CCc1cccc(C(F)(F)F)c1 [Example 94, 3-[(1-methyl-5-{2-[3-(trifluoromethyl)phenyl]ethyl}-1H-pyrazol-4-yl)ethynyl]benzenesulfonamide] yielded a pIC50 of 7.74.
In the case of Cn1ncc(C#Cc2cccc(S(N)(=O)=O)c2)c1CNc1ccc(C(F)(F)F)cc1 [Example 98], the pIC50 was 7.37.
With Cn1ncc(C#Cc2cccc(S(N)(=O)=O)c2)c1COc1ccc(C#N)cc1 [Example 100, 3-({5-[(4-cyanophenoxy)methyl]-1-methyl-1H-pyrazol-4-yl}ethynyl)benzenesulfonamide] the pIC50 was 7.21.
Cn1ncc(C#Cc2cccc(S(N)(=O)=O)c2)c1CCOc1ccc(C(F)(F)F)cc1 [Example 106, 3-[(1-methyl-5-{2-[4-(trifluoromethyl)phenoxy]ethyl}-1H-pyrazol-4-yl)ethynyl]benzenesulfonamide] showed a pIC50 of 8.10.

Same assay, conditions: inhibition of glutamic acid (30 μM, only compounds 1 and 40)-stimulated specific [35S]GTPγS binding, rat mGlu2 CHO membranes
In the case of CN(C)CCNS(=O)(=O)c1cccc(C#Cc2cnn(C)c2-c2ccc(C(F)(F)F)cc2)c1 [Example 1, N-[2-(dimethylamino)ethyl]-3-({1-methyl-5-[4-(trifluoromethyl)phenyl]-1H-pyrazol-4-yl}ethynyl)benzenesulfonamide], the pIC50 was 6.80.
In the case of Cn1ncc(C#Cc2cccc(S(N)(=O)=O)c2)c1N1Cc2cc3ccccc3cc2C1 [Example 40, 3-{[5-(1,3-dihydro-2H-benzo[f]isoindol-2-yl)-1-methyl-1H-pyrazol-4-yl]ethynyl}benzenesulfonamide], the pIC50 was 7.62.

Each compound was assayed against T2, human metabotropic glutamate receptor (mGlu2) (Homo sapiens, UniProt Q14416) (assay: [35S]GTPγS binding test (2), crude membrane fraction of CHO cells stably expressing human mGlu2). Details: inhibition of glutamic acid (20 μM)-stimulated specific [35S]GTPγS binding, human mGlu2 CHO membranes.
T2 construct: expressed in transfected cells
T2 sequence (Q14416 19-872): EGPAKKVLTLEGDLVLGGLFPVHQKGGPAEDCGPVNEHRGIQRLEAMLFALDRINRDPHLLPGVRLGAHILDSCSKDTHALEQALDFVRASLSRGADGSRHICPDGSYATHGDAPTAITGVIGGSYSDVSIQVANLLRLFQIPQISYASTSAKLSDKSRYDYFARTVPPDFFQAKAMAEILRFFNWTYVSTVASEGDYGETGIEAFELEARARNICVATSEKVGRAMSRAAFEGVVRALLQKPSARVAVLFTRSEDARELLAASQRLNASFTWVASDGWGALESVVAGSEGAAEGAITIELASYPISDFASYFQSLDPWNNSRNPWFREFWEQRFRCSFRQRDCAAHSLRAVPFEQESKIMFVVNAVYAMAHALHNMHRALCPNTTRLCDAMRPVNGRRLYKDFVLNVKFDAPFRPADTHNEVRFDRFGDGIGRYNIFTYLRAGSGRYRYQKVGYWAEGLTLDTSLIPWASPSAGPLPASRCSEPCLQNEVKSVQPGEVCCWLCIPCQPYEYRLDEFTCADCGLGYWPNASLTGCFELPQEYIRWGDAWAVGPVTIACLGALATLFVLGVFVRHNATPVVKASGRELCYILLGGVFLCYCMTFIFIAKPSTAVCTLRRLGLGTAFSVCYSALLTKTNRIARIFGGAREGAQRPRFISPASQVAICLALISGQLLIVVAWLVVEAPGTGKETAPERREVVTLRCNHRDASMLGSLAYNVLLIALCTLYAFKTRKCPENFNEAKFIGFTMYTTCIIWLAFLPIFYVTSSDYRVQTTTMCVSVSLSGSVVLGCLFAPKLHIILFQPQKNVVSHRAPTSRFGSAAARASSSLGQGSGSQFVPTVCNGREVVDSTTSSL
Assay type: biochemical
Experimental: [^35S]GTPγS Binding Test (2)
(Preparation of Crude Membrane Fraction of CHO Cells Stably Expressing the Human Metabotropic Glutamate Receptor (mGlu2))
as §1, with “human” for “rat”, “mGlu2 receptor” for “mGlu2”, “streptomycin, 400 μg/mL hygromycin B,” for “streptomycin,”, “The obtained crude membrane fraction was preserved at −80° C.” left out
The frozen membrane fraction as prepared above was thawed when used, and it was then diluted with a binding test buffer (final concentration: 20 mM HEPES, 100 mM NaCl, 10 mM MgCl2, 8.4 μM GDP, 10 μg/mL saponin, and 0.1% BSA). […] A scintillation cocktail was added to the resulting filter, and membrane-bound radioactivity was then measured with a liquid scintillation counter. […]
In the case of Cn1ncc(C#Cc2ccc(S(N)(=O)=O)cc2)c1COc1ccc(F)cn1 [Example 108, 4-[(5-{[(5-fluoropyridin-2-yl)oxy]methyl}-1-methyl-1H-pyrazol-4-yl)ethynyl]benzenesulfonamide], the pIC50 was 8.04.
Cn1ncc(C#Cc2ccc(S(N)(=O)=O)cc2)c1COc1ccc(C(F)(F)F)cn1 [Example 109, 4-{[1-methyl-5-({[5-(trifluoromethyl)pyridin-2-yl]oxy}methyl)-1H-pyrazol-4-yl]ethynyl}benzenesulfonamide] showed a pIC50 of 8.91.
